Measured values from patent publication US6458978B1, “Fluorous phosphines and process for their preparation” (Atofina Vlissingen B.V., priority 1998, dated 2002).
Marks after values point to notes of the source that are not given here.

Key:
[1] = Rhodium catalyzed hydrogenation of 1-octene under single phase fluorous conditions with catalyst recycling; settings: cycle 1, c-CF3C6F11, 80° C., p(H2) = 1 bar, [1-octene]/[Rh] = 559, [Rh]0 = 0.0060M
Experimental: (Table 5). In this respect compounds H{1,6} and H{1,8} are true fluorous equivalents of the classical Wilkinson's hydrogenation catalyst (PPh3)3RhCl. The hydrogenation products were readily isolated from the catalyst layer by cooling of the reaction mixture to 0° C. followed by phase separation of the resulting biphasic system. In this way hydrogenation of 1-octene afforded n-octane in >95% yield (GC, GC-MS). Less than 4.3% internal olefins resulting from isomerization were present. In case of H{1,8} it was possible to recycle the fluorous catalyst layer multiple times allowing high turnover numbers and high conversions per cycle (Table 5 and FIG. 5).
20. Rhodium Catalyzed Hydrogenation Reactions
The catalytic experiments were carried out in a 30 mL Schienk flask, under dihydrogen atmosphere (1 bar). The catalyst was either dissolved in a hydrogen saturated toluene or perfluoro solvent and the mixture was stirred with a magnetic stirring bar (900 rpm). The olefinic substrate was added after initial dihydrogen uptake had ceased. The dihydrogen uptake was monitored using two mineral oil filled gas burettes. During the hydrogenation reactions one burette was opened to the reaction vessel while the other was recharged with dihydrogen.
(§1) Only catalysts prepared through method 1 were used. Catalytic reactions were carried out under single phase fluorous conditions in c-CF3C6F11 (2 mL) at 80° C. After >90% conversion (monitored by the H2 uptake) the homogeneous reaction mixture was cooled to 0° C. and the upper organic layer was siphoned of. In between cycles the fluorous layer was kept under H2 atmosphere. By warming up to 80° C. and addition of a fresh portion of 1-octene (12.74 mmol) a new cycle was started. The organic phases resulting from the first cycle were analyzed by GC and ICP-AAS.

[2] = Leaching of rhodium and phosphorus into the organic product phase and partitioning of rhodium species (ICP-AAS); settings: fluorous biphasic product mixture from hydrogenation of 1-octene
Excerpt: Rhodium leaching into the organic phase (as determined by ICP-AAS) was low. On average 0.12% of Rh per cycle was lost corresponding to a rhodium concentration of 3 ppm (by weight) in the product phase. Over 9 cycles only 1% of rhodium was lost despite of the phase separation method used. Leaching was higher for less fluorous pre-catalyst H{1,6}: 0.3% (6 ppm) of rhodium was present in the organic phase after phase separation.
The amount of leached rhodium allows to calculate the average partition coefficients (P) of the rhodium species present during phase separation (Table 6). […] Chem. Soc. 1999, 121, 2696-2704.). […] Chem. Int. Ed. Engl. 1997, 36, 1610-1612).
The retention of free uncoordinated fluorous phosphine can be used for recycling the intact catalyst system.
as §1

[3] = Hydrogenation of 1-octene under single phase conditions in α,α,α-trifluorotoluene; settings: [Rh] 4.0 mM, [1-octene] 1.46 M; T = 80° C., p(H2) = 1 bar, α,α,α-trifluorotoluene
Experimental: To be able to directly compare the activities of fluorous derivatives H{1,6} and H{1,8} with non-fluorous [P(C6H4-4-SiMe3)3]3RhCl (H{0}) and the conventional Wilkinson catalyst (PPh3)3RhCl, homogeneous hydrogenation of 1-octene were carried out under single phase conditions in the hybrid solvent α,α,α-trifluorotoluene at atmospheric H2 pressures. Highest rates of hydrogen uptake (14.2 mol.L^−1.h^−1) were measured for 1c at relatively high rhodium and olefine concentrations (entry 2, Table 7). Under these conditions a zero-order dependence in [1-octene] was found up to ca 80% conversion resulting in a linear conversion versus time plot. In all other experiments ([Rh]=4.0-8.0 mM, [1-octene]0=1.46 M) rates of hydrogen uptake were lower (<11 mol.L^−1.h^−1) and conversion versus time plots corresponded to a rate law -d[1-octene]/dt=kobs.[1-octene] for >98% conversion allowing to evaluate catalyst activity in terms of the observed first order rate constant kobs. Since for these experiments the rates of dihydrogen uptake were well below the maximum value obtained in entry 2, diffusion limitation of H2 can be excluded. In addition to kobs, turn over frequencies (TOF in mol.mol^−1.h^−1) were derived from the tangent of a 4^thorder polynomal fit to conversion versus time plots at 25% conversion and serve as a measure of catalyst activity independent of any assumed kinetic relationship with substrate.
Catalytic reactions were carried out under single phase conditions in CF3C6H5 at 80° C. under 1 bar of hydrogen pressure. After >90% conversion (monitored by the H2 uptake) volatiles were distilled off and analyzed by GC. Activities (TOF) were determined for 25% conversion.

- Average partitioning coefficient P of rhodium species ([2]; T = 0° C.): 293^b
- Average partitioning coefficient P of rhodium species ([2]; T = 25° C.): 76^b
Compound: C[Si](C)(CCC(F)(F)C(F)(F)C(F)(F)C(F)(F)C(F)(F)C(F)(F)F)c1ccc([PH](c2ccc([Si](C)(C)CCC(F)(F)C(F)(F)C(F)(F)C(F)(F)C(F)(F)C(F)(F)F)cc2)(c2ccc([Si](C)(C)CCC(F)(F)C(F)(F)C(F)(F)C(F)(F)C(F)(F)C(F)(F)F)cc2)[Rh]([Cl])([PH](c2ccc([Si](C)(C)CCC(F)(F)C(F)(F)C(F)(F)C(F)(F)C(F)(F)C(F)(F)F)cc2)(c2ccc([Si](C)(C)CCC(F)(F)C(F)(F)C(F)(F)C(F)(F)C(F)(F)C(F)(F)F)cc2)c2ccc([Si](C)(C)CCC(F)(F)C(F)(F)C(F)(F)C(F)(F)C(F)(F)C(F)(F)F)cc2)[PH](c2ccc([Si](C)(C)CCC(F)(F)C(F)(F)C(F)(F)C(F)(F)C(F)(F)C(F)(F)F)cc2)(c2ccc([Si](C)(C)CCC(F)(F)C(F)(F)C(F)(F)C(F)(F)C(F)(F)C(F)(F)F)cc2)c2ccc([Si](C)(C)CCC(F)(F)C(F)(F)C(F)(F)C(F)(F)C(F)(F)C(F)(F)F)cc2)cc1 [H{1,6}, (D{1,6})3RhCl]
- TOF50% [1]: 298 h⁻¹
- TON (cumulative) [1]: 531
- conv. ([1]; containing 10 mol % of D{1,6}): 95%
- TOF(25%), turn over frequency at 25% conversion [3]: 1110 h⁻¹
- TON (mole of olefin/mole of Rh) [3]: 363
- conversion [3]: 99%
- kobs (first order rate constant) [3]: 4.2(1) h^−1
